For series [1], the target named is T1, human OX1R (Homo sapiens, UniProt O43613).
T1 construct: host or cells: HEK293T
T1 sequence (O43613 1-425): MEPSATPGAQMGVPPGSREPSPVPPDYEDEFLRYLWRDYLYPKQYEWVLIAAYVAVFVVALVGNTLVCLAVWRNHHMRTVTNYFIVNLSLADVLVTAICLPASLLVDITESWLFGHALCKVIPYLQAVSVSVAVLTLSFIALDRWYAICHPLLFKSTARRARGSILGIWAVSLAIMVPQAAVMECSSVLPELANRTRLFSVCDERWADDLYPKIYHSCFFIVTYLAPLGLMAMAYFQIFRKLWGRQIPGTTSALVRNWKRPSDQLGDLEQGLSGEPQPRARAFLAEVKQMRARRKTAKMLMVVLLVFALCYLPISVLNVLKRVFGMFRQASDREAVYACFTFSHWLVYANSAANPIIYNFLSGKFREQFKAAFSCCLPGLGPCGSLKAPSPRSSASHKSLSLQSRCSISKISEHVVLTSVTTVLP
Also noted: method as in PMID 32669442. The note with it: data from previous work, cited from earlier work.

Series [2] addresses T2, human OX2R (Homo sapiens, UniProt O43614).
T2 construct: host or cells: HEK293T
T2 sequence (O43614 1-444): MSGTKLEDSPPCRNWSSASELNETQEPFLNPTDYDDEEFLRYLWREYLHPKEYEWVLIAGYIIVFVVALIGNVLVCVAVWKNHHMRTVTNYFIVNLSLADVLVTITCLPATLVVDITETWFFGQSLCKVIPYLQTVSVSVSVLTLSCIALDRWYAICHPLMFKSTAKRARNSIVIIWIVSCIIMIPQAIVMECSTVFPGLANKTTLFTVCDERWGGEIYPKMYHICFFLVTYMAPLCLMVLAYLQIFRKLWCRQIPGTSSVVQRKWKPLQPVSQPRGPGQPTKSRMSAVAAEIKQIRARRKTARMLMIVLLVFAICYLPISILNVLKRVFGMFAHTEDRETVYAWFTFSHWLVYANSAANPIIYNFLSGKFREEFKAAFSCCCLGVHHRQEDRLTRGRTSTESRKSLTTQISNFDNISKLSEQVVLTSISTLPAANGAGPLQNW
Also noted: method as in PMID 32669442. The note with it: HEK293T homogenates; data from previous work; read-out: Ki values (nM ± SEM) hOX2R; cited from earlier work.

The nature of series [3]: Partition coefficient logD7.4 (n-octanol/PBS). The format is physicochemical. The conditions noted are these: n-octanol/PBS pH 7.4, mean ± SD. On the procedure:
Phosphate-buffered saline (PBS, 480 µL, pH 7.4) and n-octanol (500 µL) were placed in an Eppendorf tube. The radioligand (30–50 kBq, [^18F]1c or [^18F]1f) in PBS (20 µL) was added to the tube, vortexed for 1 min and centrifuged (20,000g, 1 min). Three samples (100 µL) from each layer were collected and measured by a γ-counter (Wallac Wizard 1470, PerkinElmer, USA). After the average cpm values from the triplicate measurements of each layer were calculated, the logD7.4 was determined as the logarithm of the ratio of n-octanol (mean cpm) to PBS (mean cpm). The mean logD7.4 value ± standard deviation was determined by at least three independent experiments each performed in triplicates.

Series [4] is described as follows: Plasma protein binding (MicroSpin G-50 columns). The format is in vitro ADME. The conditions noted are these: human plasma, 37 °C, read-out: plasma protein binding (PPB) (converted). The procedure: The radiotracer (100–200 kBq, [^18F]1c or [^18F]1f) in PBS (2 µL) was incubated with human plasma (100 µL) at 37 °C for 10 min. After preconditioning of the microcolumns according to the instructions of the manufacturer (illustra MicroSpin G-50 columns from GE Healthcare), a sample (40 µL) of was applied to the resin. The microspin tubes were centrifuged (2000g, 2 min) and both, eluate and resin were measured by a γ-counter (Wallac Wizard 1470, PerkinElmer, USA). The PPB was calculated as percentage of bound ligand (cpm of resin) from the total amount of radioactivity (sum of cpm of resin and eluate). Samples from incubation of the radiotracer in saline instead of plasma served as negative control. The mean PPB value was determined from at least two independent experiments each performed in triplicate.

The nature of series [5]: Radioligand stability in human plasma and human serum. The note with it: 37 °C, up to 120 min, radio-HPLC. The format is in vitro ADME. The procedure: (§1) The radioligand (1–2 MBq, [^18F]1c or [^18F]1f) in PBS (20 µL) was incubated with human serum, human plasma or rat plasma (400 µL) at 37 °C. Samples (50 µL) were taken at 5, 10, 15, 30, 60 and 120 min, mixed with aqueous TFA (10%, 50 µL) and centrifuged (20,000g, 2 min). The supernatant (20 µL) was analyzed by radio-HPLC.

A short description of series [6]: Radioligand stability in rat plasma. The format is in vitro ADME. The note with it: 37 °C, up to 120 min, radio-HPLC. The procedure:
as §1

The nature of series [7]: Dynamic small animal PET imaging of the rat brain. The format is in vivo. The note with it: for brain uptake after pretreatment with cyclosporine A: cyclosporine A 25 mg/kg i.v. prior to tracer; for brain uptake after pretreatment with cyclosporine A / brain uptake after preinjection of suvorexant / maximum brain uptake: n = 1; for brain uptake after preinjection of suvorexant: suvorexant 1 mg/kg i.v. 15 min prior to tracer; for time of maximum brain uptake p.i. / maximum brain uptake: tracer alone i.v.; for maximum brain uptake: whole brain. On the procedure:
Small animal PET experiments in rats were performed to allow for an initial comparison in single animals that were injected with [^18F]1c or [^18F[1f alone, after preinjection of suvorexant (1 mg/kg), and after pretreatment with cyclosporine A (25 mg/kg) (Fig. 3). […] Therefore, to elucidate the P-gp-mediated transport of the compounds, specific experiments were performed.
Fig. 3 Time-activity curves and horizontal PET slices of the rat brain after injection of [^18F]1c (A, C) and [^18F]1f (B, D). Single animals were injected with the tracer alone (“control”, blue) compared to animals preinjected with suvorexant (1 mg/kg, 15 min prior to tracer injection, each n = 1; “blocking”, red) or cyclosporine A (25 mg/kg, 30 min prior to tracer injection, each n = 1; green)
Ten- to 13-week-old female CD Sprague–Dawley rats (250–300 g, Charles River) were housed with free access to standard rat chow (Purina) and water at all times. Dynamic small animal PET scans were performed on an Inveon™ microPET scanner (Siemens Healthineers AG, Erlangen, Germany). All rats were continuously anesthetized using isoflurane (2–3% in oxygen, 0.8 L/min) and placed on a heating pad (37 °C) during the PET scan. Rats were injected intravenously in the tail vein with the radioligand in saline (5–15 MBq in 200–300 µL, [^18F]1c or [^18F]1f). Pretreatment with suvorexant (1 mg/kg, 15 min prior to tracer injection) or cyclosporine A (25 mg/kg, […] to tracer injection) was done intravenously. Dynamic PET scans were acquired from 0 to 60 min p.i. and consisted of 23 frames with increasing duration (12 × 10 s, 3 × 1 min, 5 × 5 min and 3 × 10 min). Subsequently, an attenuation scan with a rotating Co-57 point source was performed. The obtained dynamic emission images were subjected to an attenuation and decay correction. After the iterative maximum a posteriori (MAP) estimation for the image reconstruction, regions of interest (ROIs) were drawn for the whole brain. Computational processing of the PET scans was done with the software PMOD (PMOD Technologies LLC). The data obtained were finally converted into values expressed as percent of injected dose per gram (%ID/g).

For series [8] the following is noted: cited from earlier work.

SMILES strings stand for the structures.

Usually Ki stands for a dissociation constant, usually derived from enzyme kinetics or from competition with a known ligand. What is called logD is lipophilicity at a set pH, counting ionised and neutral species. Higher therefore signals higher lipophilicity.

Consider `CC[C@H](C)[C@H]1CN(c2nc3cc(Cl)ccc3o2)CCCN1C(=O)c1cc(C)ccc1-n1nccn1` [JH112], for which the Ki is 0.72 ± 0.08 nM in series [1] (HEK293T membranes, read-out: Ki values (nM ± SEM) hOX1R) and 54 ± 7 nM in series [2]. The “OX1R selectivity Ki(hOX2R)/Ki(hOX1R)” value in series [1] (Ki for OX2R divided by Ki for OX1R) is given as 75.

Take `Cc1ccc(-n2nccn2)c(C(=O)N2CCCN(c3nc4ccc([18F])cc4s3)CC2)c1` [[^18F]1c, [4-(6-[^18F]fluorobenzo[d]thiazol-2-yl)-1,4-diazepan-1-yl][5-methyl-2-(2H-1,2,3-triazol-2-yl)phenyl]methanone]: in series [3], the logD was determined as 2.28. Besides, the fraction unbound at 10 min in series [4] is 0.34. For the same compound, in series [5], the “stability in human plasma” value is listed as “stable over 120 min” and the “stability in human serum” value was “stable over 120 min”. In addition, the “stability in rat plasma” value in series [6] is recorded as “stable over 120 min”. Moreover, in series [7], the “brain uptake after pretreatment with cyclosporine A” value was determined as 0.25 %ID/g, the “brain uptake after preinjection of suvorexant” value came out at 0.25 %ID/g, the “time of maximum brain uptake p.i.” value is recorded as “about 40 s” and the maximum brain uptake amounted to 0.17 %ID/g.

As for `CC[C@H](C)[C@H]1CN(c2nc3ccc([18F])cc3s2)CCCN1C(=O)c1cc(C)ccc1-n1nccn1` [[^18F]1f, {(S)-2-[(S)-sec-butyl]-4-(6-[^18F]fluorobenzo[d]thiazol-2-yl)-1,4-diazepan-1-yl}[5-methyl-2-(2H-1,2,3-triazol-2-yl)phenyl]methanone], the logD in series [3] was found to be 2.37. Also, in series [4], the fraction unbound at 10 min was 0.23. In series [5], the “stability in human plasma” value is on record as “stable over 120 min” and the “stability in human serum” value is reported as “stable over 120 min”. Further, the “stability in rat plasma” value in series [6] was “stable over 120 min”. Also, in series [7], the “brain uptake after pretreatment with cyclosporine A” value came out at 0.18 %ID/g, the “brain uptake after preinjection of suvorexant” value is listed as “not affected”, the “time of maximum brain uptake p.i.” value worked out at 24 s and the maximum brain uptake came to 0.15 %ID/g.

Take `Cc1ccc(-n2nccn2)c(C(=O)N2CCN(c3nc4cc(Cl)ccc4o3)CC[C@H]2C)c1` [suvorexant]: the “protein-bound fraction in the blood” value in series [8] is given as > 99%.

The record behind these values is paper PMC11374953, “Heteroaryl derivatives of suvorexant as OX1R selective PET ligand candidates: Cu-mediated ^18F-fluorination of boroxines, in vitro and initial in vivo evaluation” (EJNMMI Research, 2024).
